Source: patent US11147796B2, “Agent for preventing or ameliorating hearing impairment” (Tohoku University, priority 2017, dated 2021)

System: wild-type male mice (C57BL/6) exposed to strong sound
Assay: Hearing ability by ABR after strong acoustic exposure
Assay type: in vivo, mouse
Conditions: vs non-administration group
Protocol: Ndufs 4 KO mice (mutant mice due to the substitution of the second exon of the Ndufs 4 gene with Neo sandwiched between loxP sequences) were purchased from Jacson Laboratory. The genetic background of the mouse was C57BL/6, and 60 days old (body weight 10 to 13 g) was used. Compound #5 (1 mg/kg body weight/day) synthesized in Example 1 was orally administered to Ndufs 4 KO mice (administration group of Ndufs 4 KO mice, n=5), between 28 and 60 days of age, at 60 days of age, the hearing ability of the compound #5 administration group was evaluated by auditory brainstem response (ABR). As a control, the hearing ability of Nudfs 4 KO mice not received compound #5 (non-administration group of Ndufs 4 KO mice, n=4), wild type mice not received compound #5 (non-administration group of wild type mice, n=3) and Ndufs 4 hetero KO mice not received compound N #5 (non-administration group of Ndufs 4 hetero KO mice, n=4) was assessed by ABR at 60 days of age. In measuring the hearing ability, a mixture of ketamine (100 mg/kg body weight) and xylazine (20 mg/kg body weight) were anesthetized by intraperitoneal injection of mice. ABR was also analyzed using TDT System 3 workstation and BioSigRP software (Tucker-Davis Technologies). The averaging (1000 times) of the evoked response to the tone burst sound of each frequency (4, 8, 12, 16, and 32 kHz) was recorded. Stimuli sounds were presented at 5 dB intervals from each frequency, 100 dB SPL (Sound Pressure Level) to 10 dB SPL. The threshold value of ABR was set as the minimum sound pressure threshold value at which at least one waveform was confirmed with reproducibility.
Six male wild-type male mice (C57BL/6) were inoculated into each of three groups (non-administration group of wild type mice, administration (1) group of wild type mice and administration (10) group of wild type mice). Compound #5 (1 mg/kg body weight/day) was orally administered to the administration (1) group of wild type mice for 1 week, compound group #5 (10 mg/kg body weight/day) for 1 week. Compound #5 was not administered to the non-administration group of wild-type mice. After oral administration for 1 week, each group of mice was placed in a chamber for strong acoustic exposure in an awake state, and octave band noise of sound pressure level 100 dB SPL, 8 to 16 kHz was exposed for 2 hours. Noise was generated with a noise generator (SF-06, Random Noise Generator; manufactured by RION), then amplified with an amplifier (D-75A; manufactured by Crown), and the audio was filtered with an audio filter (Multifunction Filter; manufactured by NF Corporation). The frequency band was set and outputted by a speaker (2446H; manufactured by JBL) attached to the center of the ceiling in the chamber. The sound pressure level was measured and confirmed with a sound pressure measuring device (2250L; manufactured by Bruel & Kjar) for each experiment. Hearing power was evaluated by ABR according to the method described in item “6-1” of Example 6 before strong-acoustic exposure and 4 hours after exposure.

[1] = 1 mg/kg body weight/day oral for 1 week
[2] = 10 mg/kg body weight/day oral for 1 week

O=C(CC(C(=O)O)c1c[nH]c2ccccc12)c1ccc(F)cc1F (centres unmarked) [compound #5, 4-(2,4-Difluorophenyl)-2-(1H-indol-3-yl)-4-oxo-butanoic Acid]
ABR threshold change before and after strong acoustic exposure [1]: decreased
ABR threshold value after 4 hours of strong acoustic exposure [1]: lower
ABR threshold change before and after strong acoustic exposure [2]: decreased
ABR threshold value after 4 hours of strong acoustic exposure [2]: lower
ABR threshold values before strong acoustic exposure (1 and 10 mg/kg body weight/day oral for 1 week): no difference
